Test results as given in US10414763B2 (CANCER RESEARCH TECHNOLOGY LIMITED, priority 2014, dated 2019).

Target: T1, full-length human PKCι (Homo sapiens, UniProt P41743)
T1 construct: Recombinant, full-length human PKCι expressed in Sf21 insect cells is also commercially available; purchased EMD Millipore; host or cells: Sf21 insect cells (baculovirus)
T1 sequence (P41743 1-596): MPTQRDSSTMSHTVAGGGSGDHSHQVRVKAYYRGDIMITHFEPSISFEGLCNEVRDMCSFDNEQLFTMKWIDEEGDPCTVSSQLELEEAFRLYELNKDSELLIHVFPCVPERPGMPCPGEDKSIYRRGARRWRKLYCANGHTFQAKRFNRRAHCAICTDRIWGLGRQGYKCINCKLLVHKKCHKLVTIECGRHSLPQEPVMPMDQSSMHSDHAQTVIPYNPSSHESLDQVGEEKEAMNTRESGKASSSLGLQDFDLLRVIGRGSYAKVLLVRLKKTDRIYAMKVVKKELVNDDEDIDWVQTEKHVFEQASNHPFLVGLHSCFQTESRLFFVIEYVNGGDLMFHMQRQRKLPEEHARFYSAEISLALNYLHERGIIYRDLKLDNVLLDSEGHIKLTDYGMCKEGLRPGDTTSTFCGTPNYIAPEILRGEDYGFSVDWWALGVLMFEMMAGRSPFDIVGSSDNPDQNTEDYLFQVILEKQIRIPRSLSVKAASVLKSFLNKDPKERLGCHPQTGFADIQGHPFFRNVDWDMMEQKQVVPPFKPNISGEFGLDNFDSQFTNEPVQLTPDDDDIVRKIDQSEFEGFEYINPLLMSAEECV
Assay: PKCι IC50 IMAP fluorescence polarisation assay, full-length enzyme, 150 μM ATP
Format: biochemical
Details: read-out: IC50 in IMAP assay against full length PKCi at 150 μM ATP
Outline: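 IMAP fluorescence polarisation kinase assay: 15 pM baculovirus-expressed human PKCiota with 100 nM FAM-pseudosubstrate peptide and 150 μM ATP, 1 h at 25 °C. IMAP detection reagent then 2 h at 25 °C before FP measurement. Inhibition referenced to no-compound and no-enzyme controls for IC50 fitting.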

| Structure (SMILES) | IC50 [nM] |
| --- | --- |
| CN(c1nc(-c2ccnc3[nH]c(Sc4ccccc4)cc23)nc2cncc(C3CC3)c12)C1CCNCC1(C)C (stereo not shown) [Example 29, [5-Cyclopropyl-2-(2-phenylsulfanyl-1H-pyrrolo[2,3-b]pyridin-4-yl)-pyrido[3,4-d]pyrimidin-4-yl]-(3,3-dimethyl-piperidin-4-yl)-methyl-amine] | < 100 |
| COc1nc(-c2ccnc3[nH]c4ccccc4c23)nc2cncc(C3CCC3)c12 [Example 30, 4-(5-Cyclobutyl-4-methoxy-pyrido[3,4-d]pyrimidin-2-yl)-9H-pyrido[2,3-b]indole] | 10000 to 40000 |
| CN(c1nc(-c2ccnc3[nH]c4ccccc4c23)nc2cncc(C3CCC3)c12)C1CCNCC1(C)C (stereo not shown) [Example 31, [5-Cyclobutyl-2-(9H-pyrido[2,3-b]indol-4-yl)-pyrido[3,4-d]pyrimidin-4-yl]-(3,3-dimethyl-piperidin-4-yl)-methyl-amine] | < 100 |
| CN(c1nc(-c2ccnc3[nH]c(-c4csc(C(C)(C)C)n4)cc23)nc2cncc(C3CC3)c12)C1CCNCC1(C)C (stereo not shown) [Example 32, {2-[2-(2-tert-Butyl-thiazol-4-yl)-1H-pyrrolo[2,3-b]pyridin-4-yl]-5-cyclopropyl-pyrido[3,4-d]pyrimidin-4-yl}-(3,3-dimethyl-piperidin-4-yl)-methyl-amine] | < 100 |
| c1ccc2c(c1)[nH]c1nccc(-c3nc(N[C@H]4[C@@H]5CNC[C@@H]54)c4c(C5CCC5)cncc4n3)c12 [Example 33, (2R,6S)-3-Aza-bicyclo[3.1.0]hex-6-yl-[(S)-5-cyclobutyl-2-(9H-pyrido[2,3-b]indol-4-yl)-pyrido[3,4-d]pyrimidin-4-yl]-amine] | < 100 |
| CC1(C)CNCCC1Nc1nc(-c2ccnc(Nc3cc4ccccn4n3)c2)nc2cncc(C3CC3)c12 (stereo not shown) [Example 35, {5-Cyclopropyl-2-[2-(pyrazolo[1,5-a]pyridin-2-ylamino)-pyridin-4-yl]-pyrido[3,4-d]pyrimidin-4-yl}-(3,3-dimethyl-piperidin-4-yl)-amine] | < 100 |
| CN(c1nc(-c2ccnc(Nc3cc4ccccn4n3)c2)nc2cncc(C3CC3)c12)C1CCNCC1(C)C (stereo not shown) [Example 36, {5-Cyclopropyl-2-[2-(pyrazolo[1,5-a]pyridin-2-ylamino)-pyridin-4-yl]-pyrido[3,4-d]pyrimidin-4-yl}-(3,3-dimethyl-piperidin-4-yl)-methyl-amine] | < 100 |
| c1cc(-c2nc(N3CCNCC3)c3c(C4CC4)cncc3n2)cc(Nc2nc(C3CC3)cs2)n1 [Example 37, [4-(5-Cyclopropyl-4 piperazin-1-yl-pyrido[3,4-d]pyrimidin-2-yl)-pyridin-2-yl]-(4-cyclopropyl-thiazol-2-yl)-amine] | < 100 |
| c1cc(-c2nc(N3CCNCC3)c3c(C4CCC4)cncc3n2)cc(Nc2nc(C3CC3)cs2)n1 [Example 38, [4-(5-Cyclobutyl-4-piperazin-1-yl-pyrido[3,4-d]pyrimidin-2-yl)-pyridin-2-yl]-(4-cyclopropyl-thiazol-2-yl)-amine] | < 100 |
| CC1(C)CNCCC1Nc1nc(-c2ccnc(Nc3nc(C4CC4)cs3)c2)nc2cncc(C3CC3)c12 (stereo not shown) [Example 39, {5-Cyclopropyl-2-[2-(4-cyclopropyl-thiazol-2-ylamino)-pyridin-4-yl]-pyrido[3,4-d]pyrimidin-4-yl}-(3,3-dimethyl-piperidin-4-yl)-amine] | 100 to 1000 |
| Fc1ccc(-c2cc3c(-c4nc(N5CCNCC5)c5c(C6CC6)cncc5n4)ccnc3[nH]2)c(F)n1 [Example 40, 5-Cyclopropyl-2-[2-(2,6-difluoro-pyridin-3-yl)-1H-pyrrolo[2,3-b]pyridin-4-yl]-4-piperazin-1-yl-pyrido[3,4-d]pyrimidine] | < 100 |
| Cc1ccc(-c2cc3c(-c4nc(N5CCNCC5)c5c(C6CC6)cncc5n4)ccnc3[nH]2)s1 [Example 41, 5-Cyclopropyl-2-[2-(5-methyl-thiophen-2-yl)-1H-pyrrolo[2,3-b]pyridin-4-yl]-4-piperazin-1-yl-pyrido[3,4-d]pyrimidine] | < 100 |
| Cc1ccc(-c2cc3c(-c4nc(N5CCNCC5)c5c(C6CC6)cncc5n4)ccnc3[nH]2)o1 [Example 42, 5-Cyclopropyl-2-[2-(5-methyl-furan-2-yl)-1H-pyrrolo[2,3-b]pyridin-4-yl]-4-piperazin-1-yl-pyrido[3,4-d]pyrimidine] | < 100 |
| Fc1ncccc1-c1cc2c(-c3nc(N4CCNCC4)c4c(C5CC5)cncc4n3)ccnc2[nH]1 [Example 43, 5-Cyclopropyl-2-[2-(2-fluoro-pyridin-3-yl)-1H-pyrrolo[2,3-b]pyridin-4-yl]-4-piperazin-1-yl-pyrido[3,4-d]pyrimidine] | < 100 |
| CN(c1nc(-c2ccnc3[nH]c4ccccc4c23)nc2cncc(C3CCC3)c12)C1CCCNCC1 (stereo not shown) [Example 44, Azepan-4-yl-[5-cyclobutyl-2-(9H-pyrido[2,3-b]indol-4-yl)-pyrido[3,4-d]pyrimidin-4-yl]-methyl-amine] | < 100 |
| CN(c1nc(-c2ccnc3[nH]c(-c4cc(Cl)ccc4Cl)cc23)nc2cncc(C3CC3)c12)C1CCNCC1(C)C (stereo not shown) [Example 45, {5-Cyclopropyl-2-[2-(2,5-dichloro-phenyl)-1H-pyrrolo[2,3-b]pyridin-4-yl]-pyrido[3,4-d]pyrimidin-4-yl}-(3,3-dimethyl-piperidin-4-yl)-methyl-amine] | < 100 |
| Clc1ccc(Cl)c(-c2cc3c(-c4nc(N5CCNCC5)c5c(C6CC6)cncc5n4)ccnc3[nH]2)c1 [Example 46, 5-Cyclopropyl-2-[2-(2,5-dichloro-phenyl)-1H-pyrrolo[2,3-b]pyridin-4-yl]-4-piperazin-1-yl-pyrido[3,4-d]pyrimidine] | < 100 |
| CC1(C)CNCCC1Nc1nc(-c2ccnc(Nc3ccccc3)c2)nc2cncc(C3CC3)c12 (stereo not shown) [Example 47, [5-Cyclopropyl-2-(2-phenylamino-pyridin-4-yl)-pyrido[3,4-d]pyrimidin-4-yl]-(3,3-dimethyl-piperidin-4-yl)-amine] | < 100 |
| CC1(C)CNCCC1Nc1nc(-c2ccnc(Nc3ccc(F)cn3)c2)nc2cncc(C3CC3)c12 (stereo not shown) [Example 48, {5-Cyclopropyl-2-[2-(5-fluoro-pyridin-2-ylamino)-pyridin-4-yl]-pyrido[3,4-d]pyrimidin-4-yl}-(3,3-dimethyl-piperidin-4-yl)-amine] | < 100 |
| CC1(C)CNCCC1Nc1nc(-c2ccnc(Nc3ncccc3F)c2)nc2cncc(C3CC3)c12 (stereo not shown) [Example 49, {5-Cyclopropyl-2-[2-(3-fluoro-pyridin-2-ylamino)-pyridin-4-yl]-pyrido[3,4-d]pyrimidin-4-yl}-(3,3-dimethyl-piperidin-4-yl)-amine] | < 100 |
| CC1(C)CNCCC1Nc1nc(-c2ccnc(Nc3cc(F)ccn3)c2)nc2cncc(C3CC3)c12 (stereo not shown) [Example 50, {5-Cyclopropyl-2-[2-(4-fluoro-pyridin-2-ylamino)-pyridin-4-yl]-pyrido[3,4-d]pyrimidin-4-yl}-(3,3-dimethyl-piperidin-4-yl)-amine] | < 100 |
| CC1(C)CNCCC1Nc1nc(-c2ccnc(Nc3cc(C(F)(F)F)ccn3)c2)nc2cncc(C3CC3)c12 (stereo not shown) [Example 51, {5-Cyclopropyl-2-[2-(4-trifluoromethyl-pyridin-2-ylamino)-pyridin-4-yl]-pyrido[3,4-d]pyrimidin-4-yl}-(3,3-dimethyl-piperidin-4-yl)-amine] | < 100 |
| CC(C)(C)c1csc(Nc2cc(-c3nc(N4CCNCC4)c4c(C5CC5)cncc4n3)ccn2)n1 [Example 52, (4-tert-Butyl-thiazol-2-yl)-[4-(5-cyclopropyl-4-pipcrazin-1-yl-pyrido[3,4-d]pyrimidin-2-yl)-pyridin-2-yl]-amine] | 100 to 1000 |
| CN(c1nc(-c2ccnc(Nc3nc(C4CC4)cs3)c2)nc2cncc(C3CC3)c12)C1CCNCC1(C)C (stereo not shown) [Example 53, {5-Cyclopropyl-2-[2-(4-cyclopropyl-thiazol-2-ylamino)-pyridin-4-yl]-pyrido[3,4-d]pyrimidin-4-yl}-(3,3-dimethyl-piperidin-4-yl)-methyl-amine] | 100 to 1000 |
| CN(C)CC#Cc1cc2c(-c3nc(N4CCNCC4)c4c(C5CCC5)cncc4n3)ccnc2[nH]1 [Example 55, {3-[4-(5-Cyclobutyl-4-piperazin-1-yl-pyrido[3,4-d]pyrimidin-2-yl)-1H-pyrrolo[2,3-b]pyridin-2-yl]-prop-2-ynyl}-dimethyl-amine] | < 100 |
| c1cncc(-c2cc3c(-c4nc(N5CCNCC5)c5c(C6CC6)cncc5n4)ccnc3[nH]2)c1 [Example 58, 5-Cyclopropyl-4-piperazin-1-yl-2-(2-pyridin-3-yl-1H-pyrrolo[2,3-b]pyridin-4-yl)-pyrido[3,4-d]pyrimidine] | < 100 |
| c1ccc2c(c1)[nH]c1nccc(-c3nc(N4CCC5NCCC54)c4c(C5CCC5)cncc4n3)c12 (stereo not shown) [Example 59, 4-[5-Cyclobutyl-4-(hexahydro-pyrrolo[3,2-b]pyrrol-1-yl)-pyrido[3,4-d]pyrimidin-2-yl]-9H-pyrido[2,3-b]indole] | < 100 |
| NC1CCC(Nc2nc(-c3ccnc4[nH]c5ccccc5c34)nc3cncc(C4CCC4)c23)C1 (stereo not shown) [Example 60, N-[5-Cyclobutyl-2-(9H-pyrido[2,3-b]indol-4-yl)-pyrido[3,4-d]pyrimidin-4-yl]-cyclopentane-1,3-diamine] | < 100 |
